From patent publication US8524277B2, “Extended release dosage form” (Alza Corporation, priority 1998, dated 2013)

Assay type: physicochemical
Description: Hydrophilic materials for use in forming the interior wall which have solubilities sensitive to osmotic pressure or to ionic strength can be screened experimentally prior to formulating them within the interior wall. This procedure involves forming an aqueous solution of the candidate hydrophilic materials using distilled water as the solvent. Then, the resulting solution is cast onto a smooth inert surface, such as a glass plate, and allowed to dry to a film. The film is then removed and cut into sections of known area, thickness, and weight. The resulting film samples are then placed in a series of reference solutions of various osmotic pressures or ionic strengths with mild stirring. The time required for the film to dissolve, t, is then measured as a function of osmotic pressure or ionic strength. Then, given the known values of initial film thickness, hi, the dissolution rate of the film, dh/dt, can be calculated according to Equation 5. […]
The solubility of various hydrophilic materials to osmotic pressure was evaluated. […] Thicknesses of the discs were measured with a table micrometer. […] The time to dissolution was then monitored for each sample. Dissolution rate was calculated according to Equation 5 and plotted as a function of osmotic pressure for each molecular weight. […]

hydroxypropylcellulose [Klucel EF]
osmotic pressure at which the film is insoluble: above 30 atmospheres
osmotic pressure at which the film is soluble: 0-30 atmospheres
